The values below come from patent publication US20250122529A1, “POLYCISTRONIC VECTORS FOR CELL-BASED THERAPIES” (Sana Biotechnology, Inc., priority 2021, published 2025).

Bounds are passed on as bounds.

The test system of data set [1] is CyD-CD47 clones 2-G09 and 2-G11. Put plainly: CyD kill curve with 5-FC (cell count). Type of data set: cell-based. From the text: Hollow triangles represent iPSCs; filled triangles represent differentiated cells.
The bicistronic vector was used to transduce induced pluripotent stem cells (iPSCs), which were then allowed to differentiate. Differentiation of CyD-CD47-expressing clones in 2D was not affected by safety switch expression (data not shown here).

Data set [2] relates to CD47-HSVtk clones. Put plainly: HSVtk kill curve with GCV (flow cytometry with counting beads). Type of data set: cell-based. To be noted: various amounts of GCV; after three days. From the text: Calculated IC50 and R square (R^2) values for each clone are also shown.
The next data set concerns control clone. Description: GCV toxicity in control clone. Type of data set: cell-based. The settings on record: tested dose range.
The subject of data set [3] is CD47-HSVtk clones. The settings on record: range reported in literature; IC50s in CD47-HSVtk clones generally comparable; cited from earlier work.
The next data set deals with CD22 (Homo sapiens, UniProt P20273). To be noted: affinity matured variant; read-out: CD22 binding affinity; cited from earlier work.

The IC50 is the concentration at which inhibition is half-maximal. Consider `Nc1nc(=O)[nH]cc1F` [Construct 5-FC, 5-fluorocytosine], for which the killing entry in data set [1] (CyD in the presence of 5-FC, differentiated cells, clones 2-G09 and 2-G11) is on record as “more than 99%”. Moreover, the IC50 result in data set [1] (differentiated cells relative to iPSCs) is listed as “comparable IC50s relative to iPSCs”.
With `Nc1nc(O)c2ncn(COC(CO)CO)c2n1` [GCV, ganciclovir], in the data set with CD47-HSVtk clones [2], the “HSVtk killing (viable cell count %)” value is on record as “dose-response HSVtk killing was achieved”. Also, the GCV toxicity entry with control clone is recorded as “no GCV toxicity”. In addition, the IC50 in the data set on CD47-HSVtk clones [3] is 10 to 100 nM.

B1: m971-L7: affinity matured variant of m971 (protein)
scFv: QVQLQQSGPGMVKPSQTLSLTCAISGDSVSSNSVAWNWIRQSPSRGLEWLGRTYYRSTWYNDYAVSMKSRITINPDTNKNQFSLQLNSVTPEDTAVYYCAREVTGDLEDAFDIWGQGTMVTVSSGGGGSGGGGSGGGGSDIQMIQSPSSLSASVGDRVTITCRASQTIWSYLNWYRQRPGEAPNLLIYAASSLQSGVPSRFSGRGSGTDFTLTISSLQAEDFATYYCQQSYSIPQTFGQGTKLEIK
modifications: Synthetic: Anti-CD22 m971-L7 scFv entire sequence, with 3xG4S linker
As to B1, the Kd with CD22 is under 0.05 nM.
